Assay results from PubChem BioAssay (NCI).
“And” between values parts separate entries of the source, which are not always exact repeats. Identical values can stand only once.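 Interpolation was linear, between the two tested concentrations surrounding the appropriate level; five concentrations were tested over 48 hours in 96-well plates. Abbreviation: GI50, concentration required for 50% inhibition of growth. TGI denotes the concentration required for complete inhibition of growth.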

Legend:
Assay in all cases: NCI anticancer screen, dose series, 48 h
[1] = test system: ACHN renal
[2] = test system: HL-60(TB) leukemia
[3] = test system: KM12 colon
[4] = test system: SN12C renal
[5] = test system: MALME-3M melanoma
[6] = test system: M14 melanoma
[7] = test system: SK-MEL-2 melanoma
[8] = test system: NCI-H522 lung
[9] = test system: U251 CNS
[10] = test system: SF-539 CNS

Compound	TGI [1] [µM]	TGI [2] [µM]	TGI [3] [µM]	TGI [4] [µM]	TGI [5] [µM]	TGI [6] [µM]	TGI [7] [µM]	TGI [8] [µM]	TGI [9] [µM]	TGI [10] [µM]	GI50 [10]	GI50 [1] [nM]	GI50 [2] [nM]	GI50 [3] [nM]	GI50 [4] [nM]	GI50 [5] [nM]	GI50 [6] [nM]	GI50 [7] [nM]	GI50 [8] [nM]
CN1C(C)(C)CC(=O)C(Br)C1(C)C (centres undefined)	> 100	> 100	> 100	> 100	> 100	> 100	> 100	> 100	> 100	–	–	–	–	–	–	–	–	–	–
O=c1oc2ccc3ccccc3c2cc1-c1cn2c(n1)sc1ccccc12	> 100	> 100	> 100	–	> 100	> 100	> 100	> 100	> 100	–	–	–	–	–	–	–	–	–	–
CC(CNC(=O)c1ccccc1)(CNC(=O)c1ccccc1)[N+](=O)[O-]	> 100	> 100	> 100	> 100	> 100	> 100	> 100	> 100	> 100	> 100	–	–	–	–	–	–	–	–	–
CC(=O)OCC1OC(OC(C)=O)C(Nc2ncc(-c3ccc(C)cc3)s2)C(OC(C)=O)C1OC(C)=O (centres undefined)	27.7	–	–	40.8	41.5	33.4	59.7	34.3	31.6	37.7	–	–	–	–	–	–	–	–	–
CCCCCCCCCCCCCCCC(=O)Nc1ccn(C2CCC(COP(=O)(O)OCC3OC(n4cc(F)c(=O)[nH]c4=O)CC3OC(C)=O)O2)c(=O)n1 (centres undefined)	> 100	27.9	34.8	> 73.7	53.3	28.1	47.6	27.7	36.3	> 23.3	–	–	–	–	–	–	–	–	–
O=[N+]([O-])c1ccc(CN=C2NNS(=O)(=O)c3ccccc32)cc1	> 100	> 100	> 100	> 100	> 100	> 100	> 100	–	> 100	> 100	–	–	–	–	–	–	–	–	–
CN(C)CCN(C)C(=O)C1CCCN1C(=O)OCc1ccccc1 (centres undefined)	> 100	> 100	–	> 100	> 100	> 100	> 100	24	> 100	> 100	–	–	–	–	–	–	–	–	–
CC[C@@H]1CC[C@@H]2[C@H](CC[C@]3(C)[C@@H](OC(C)=O)CC[C@@H]23)[C@H]1C(=O)OC	> 100	31.3	52.1	69.9	33.3	42.3	39.2	47.8	43.3	38.3	–	–	–	–	–	–	–	–	–
CC(C)CC(NC=O)C(=O)NC(Cc1ccccc1)NC(=O)CNC(=O)C(C)NC(=O)C(N)Cc1ccc(O)cc1 (centres undefined)	> 100	> 100	> 100	> 100	–	> 100	–	> 100	> 100	> 100	–	–	–	–	–	–	–	–	–
CC(=O)Oc1ccc(Nn2c3ccccc3c3ccccc32)c(C)c1	–	63.2	> 100	> 100	> 100	74.3	> 100	46.3	> 100	–	–	–	–	–	–	–	–	–	–
c1ccc2nn(C3CCCO3)nc2c1 (centres undefined)	–	> 100	–	> 100	> 100	> 100	> 100	> 100	> 100	> 100	–	–	–	–	–	–	–	–	–
CC(C)COP(C)(=O)C(N)(C(F)(F)F)C(F)(F)F (centres undefined)	> 100	> 100	> 100	> 100	> 100	> 100	> 100	–	> 100	> 100	–	–	–	–	–	–	–	–	–
O=C(/C=C/c1ccc(O)c(O)c1)NC(COC(=O)/C=C/c1ccc(O)c(O)c1)C(=O)O (centres undefined)	> 100	–	> 100	> 100	> 100	> 100	> 100	> 100	> 100	> 100	–	–	–	–	–	–	–	–	–
c1ccc2cc(CNCCCCNCCCNCc3ccc4ccccc4c3)ccc2c1	2.92	–	0.97	0.879	3.28	3.69	4.16	2.78	1.25	3.47	–	–	–	–	–	–	–	–	–
Nc1nc(N)c2ncn(-c3ccccc3)c2n1	> 100	–	> 100	> 100	> 100	> 100	> 100	> 100	> 100	> 100	> 100 µM and 49.2 µM	–	–	–	–	–	–	–	–
CCOC(=O)C1(C#N)C(C#N)(C#N)C1(C#N)C#N	> 100	> 100	> 100	> 100	> 100	> 100	> 100	> 100	> 100	–	–	–	–	–	–	–	–	–	–
CC(C)OC(=O)NNc1cccc(Cl)c1	> 100	> 100	> 100	> 100	> 100	> 100	> 100	–	> 100	> 100	–	–	–	–	–	–	–	–	–
COC(=O)[C@H](COC(C)(C)C)NC(=O)N[C@H](C)c1ccccc1	> 100	> 100	> 100	> 100	–	> 100	> 100	> 100	> 100	> 100	–	–	–	–	–	–	–	–	–
C/C(=C\CNc1ncnc2c1ncn2CCC(=O)OC(C)(C)C)CO	> 100	> 100	> 100	> 100	> 100	> 100	–	> 100	–	> 100	–	–	–	–	–	–	–	–	–
CCOC(=O)C1=CNC(C(=O)OCC)C1c1cccn1-c1ccccc1 (centres undefined)	> 100	–	98.7	> 100	–	> 100	37.2	59.1	> 100	47.1	–	–	–	–	–	–	–	–	–
N#CCC1C2CC3C(C2=O)C13 (centres undefined)	> 100	–	> 100	> 100	> 100	> 100	> 100	> 100	> 100	> 100	–	–	–	–	–	–	–	–	–
CC(Cc1cccc2c1Nc1ccccc1S2)N(C)CCO (centres undefined)	> 100	> 100	> 100	> 100	> 100	> 100	–	> 100	> 100	> 100	–	–	–	–	–	–	–	–	–
CC1CCC2CC1NC(=O)CCOCCC(=O)NC2(C)C (centres undefined)	–	> 100	> 100	> 100	–	> 100	–	> 100	> 100	> 100	–	–	–	–	–	–	–	–	–
CN1c2ccccc2C(=O)NC12CCNCC2	> 100	> 100	> 100	–	> 100	> 100	–	–	> 100	> 100	–	–	–	–	–	–	–	–	–

Compound	TGI [1] [µM]	TGI [2] [µM]	TGI [3] [µM]	TGI [4] [µM]	TGI [5] [µM]	TGI [6] [µM]	TGI [7] [µM]	TGI [8] [µM]	TGI [9] [µM]	TGI [10] [µM]	GI50 [10]	GI50 [1] [nM]	GI50 [2] [nM]	GI50 [3] [nM]	GI50 [4] [nM]	GI50 [5] [nM]	GI50 [6] [nM]	GI50 [7] [nM]	GI50 [8] [nM]
CCOC(=O)Nc1n[nH]nc1Cl	–	–	> 100	> 100	> 100	> 100	> 100	> 100	> 100	> 100	–	–	–	–	–	–	–	–	–
COc1cc(/C=C/C(=O)c2ccc(F)cc2)ccc1OCCCCCOc1cc2c(cc1OC)C(=O)N1CCCC1C=N2 (centres undefined)	0.368	–	0.0501	2.37	0.439	0.266	1.51	0.249	–	0.0301	< 0.0166 µM	19.7	40.5	14.7	33.5	212	49.1	62	31.8
COc1cc2cc3c4cc(OC)c(OC)cc4cc[n+]3c(C)c2cc1OC	> 100	> 100	> 100	> 100	> 100	–	> 100	> 100	> 100	> 100	–	–	–	–	–	–	–	–	–
CCCCCCCc1cscc1-c1cscc1Br	> 100	–	80.7	> 100	> 100	> 100	34.1	61.9	> 100	> 100	–	–	–	–	–	–	–	–	–
CC(=O)N=c1ccc2nc(N)nn(O)c-2c1	> 100	> 100	> 100	> 100	–	> 100	> 100	> 100	> 100	> 100	–	–	–	–	–	–	–	–	–
O=C1C=CC(=O)c2cc(Sc3ccccc3)c(=O)c(Sc3ccccc3)cc21	36	27.7	> 100	> 100	–	> 100	> 100	25.4	> 100	> 100	–	–	–	–	–	–	–	–	–
S=C(Nc1ccc2c(c1)oc1ccccc12)c1cccs1	> 100	> 100	–	> 100	–	> 100	> 100	> 100	> 100	> 100	–	–	–	–	–	–	–	–	–
C=C(CCC/C(C)=C/C=C/[C@H](C)CCCc1ccoc1)C[C@@H]1OC(=O)[C@H](C)[C@@H]1O	18.4	–	23.3	17.7	19.8	19.4	17.8	18.8	24.3	19.2	–	–	–	–	–	–	–	–	–
Cc1c(-c2nc(N)c(C#N)c(N)c2C#N)c(=O)oc2ccccc12	> 100	> 100	> 100	> 100	> 100	> 100	> 100	–	> 100	> 100	–	–	–	–	–	–	–	–	–
C(=N\NC1=NCCN1)/c1cccc2cc3ccncc3nc12	13.6	2.76	17.9	14.9	23.4	28.3	–	11.9	4	21.2	–	–	–	–	–	–	–	–	–
c1ccc(-c2cc(-c3ccncc3)cc(-c3ccncc3)n2)cc1	> 100	> 100	> 100	> 100	> 100	> 100	> 100	> 100	> 100	–	–	–	–	–	–	–	–	–	–
CCOC(=O)c1cn(CC)c2ccc3ccsc3c2c1=O	> 100	> 100	> 100	–	> 100	> 100	> 100	> 100	> 100	> 100	–	–	–	–	–	–	–	–	–
C/C(=N\O)C1CC2C=C(C#N)C1N(Cc1ccccc1)C2 (centres undefined)	> 100	> 100	> 100	> 100	> 100	> 100	–	–	> 100	> 100	–	–	–	–	–	–	–	–	–
[N-]=[N+]=CC(=O)OCC1NC(=O)C(COC(=O)C=[N+]=[N-])NC1=O (centres undefined)	> 100	> 100	> 100	> 100	> 100	> 100	> 100	–	> 100	> 100	–	–	–	–	–	–	–	–	–
CCP(=O)(CC)C(Cl)(Cl)C(O)C(Cl)(Cl)Cl (centres undefined)	> 100	> 100	–	> 100	–	> 100	> 100	> 100	> 100	–	–	–	–	–	–	–	–	–	–
O=C1CCCC2=C1CC1=C(CCCC1=O)N2c1ccc([N+](=O)[O-])cc1	> 100	> 100	> 100	> 100	–	> 100	–	–	> 100	> 100	–	–	–	–	–	–	–	–	–
C/C1=C/C[C@@H](/C(C)=C/c2csc(C)n2)OC(=O)C[C@H](O)C(C)(C)C(=O)[C@H](C)[C@@H](O)[C@@H](C)CCC1	0.323	–	0.196	0.209	–	0.23	0.188	< 0.0001	0.169	< 0.0001	–	–	–	–	–	–	–	–	–
C#C[C@]1(O)[C@@H](CO)O[C@@H](n2ccc(N)nc2=O)[C@@H]1O	0.612	> 100	4.4	–	0.925	3.06	0.617	0.0365	–	13.5	–	–	–	–	–	–	–	–	–
Oc1c(Cl)c(Cl)c(O)c(CCNc2nccs2)c1Cl	23.4	> 100	35.8	49.2	54.9	36	48.4	–	66.1	4.14	–	–	–	–	–	–	–	–	–
CCc1ccc(Nc2cc(=O)n(C)c(SCc3ccccc3)n2)cc1	> 100	> 100	> 100	42.8	> 100	> 100	> 100	> 100	–	> 100	–	–	–	–	–	–	–	–	–
Cc1cc(C)c(NC(=O)/C=C/c2ccccc2)c(C)c1	> 100	> 100	> 100	–	–	> 100	> 100	61.8	> 100	> 100	–	–	–	–	–	–	–	–	–
Cc1cc(C)c(S(=O)(=O)N(CCCN)OCCON(CCCN)S(=O)(=O)c2c(C)cc(C)cc2C)c(C)c1	66.1	> 21.9	4.49	> 100	3.8	> 100	3.24	13.6	> 100	–	–	–	–	–	–	–	–	–	–
CO[C@H]1O[C@@H]2OC3(C)CCC4[C@H](C)CCC([C@H]1C)[C@]42OO3 (some centres undefined)	> 100	46.7	–	> 100	> 100	> 100	> 100	> 100	> 100	> 100	–	–	–	–	–	–	–	–	–
